Data reported in ChEMBL document CHEMBL4406913, “INCB050465 (Parsaclisib), a Novel Next-Generation Inhibitor of Phosphoinositide 3-Kinase Delta (PI3Kδ)” (ACS Med Chem Lett, 2019).
pIC50: −log10 of the molar value. ≈ marks a conversion by molar mass, not a printed value. Calls of active or inactive are those of the source. No cut-off for these calls is given here.

Columns and labels:
[1] = molecular target: T1, Phosphatidylinositol 4,5-bisphosphate 3-kinase catalytic subunit delta isoform (Homo sapiens, UniProt O00329); assay: Inhibition of PI3Kdelta in human Ramos cells assessed as reduction in AKT phosphorylation incubated for 2 hrs by Alexa flour 488 based FACS analysis; assay type: cell-based
T1 sequence (O00329 whole entry): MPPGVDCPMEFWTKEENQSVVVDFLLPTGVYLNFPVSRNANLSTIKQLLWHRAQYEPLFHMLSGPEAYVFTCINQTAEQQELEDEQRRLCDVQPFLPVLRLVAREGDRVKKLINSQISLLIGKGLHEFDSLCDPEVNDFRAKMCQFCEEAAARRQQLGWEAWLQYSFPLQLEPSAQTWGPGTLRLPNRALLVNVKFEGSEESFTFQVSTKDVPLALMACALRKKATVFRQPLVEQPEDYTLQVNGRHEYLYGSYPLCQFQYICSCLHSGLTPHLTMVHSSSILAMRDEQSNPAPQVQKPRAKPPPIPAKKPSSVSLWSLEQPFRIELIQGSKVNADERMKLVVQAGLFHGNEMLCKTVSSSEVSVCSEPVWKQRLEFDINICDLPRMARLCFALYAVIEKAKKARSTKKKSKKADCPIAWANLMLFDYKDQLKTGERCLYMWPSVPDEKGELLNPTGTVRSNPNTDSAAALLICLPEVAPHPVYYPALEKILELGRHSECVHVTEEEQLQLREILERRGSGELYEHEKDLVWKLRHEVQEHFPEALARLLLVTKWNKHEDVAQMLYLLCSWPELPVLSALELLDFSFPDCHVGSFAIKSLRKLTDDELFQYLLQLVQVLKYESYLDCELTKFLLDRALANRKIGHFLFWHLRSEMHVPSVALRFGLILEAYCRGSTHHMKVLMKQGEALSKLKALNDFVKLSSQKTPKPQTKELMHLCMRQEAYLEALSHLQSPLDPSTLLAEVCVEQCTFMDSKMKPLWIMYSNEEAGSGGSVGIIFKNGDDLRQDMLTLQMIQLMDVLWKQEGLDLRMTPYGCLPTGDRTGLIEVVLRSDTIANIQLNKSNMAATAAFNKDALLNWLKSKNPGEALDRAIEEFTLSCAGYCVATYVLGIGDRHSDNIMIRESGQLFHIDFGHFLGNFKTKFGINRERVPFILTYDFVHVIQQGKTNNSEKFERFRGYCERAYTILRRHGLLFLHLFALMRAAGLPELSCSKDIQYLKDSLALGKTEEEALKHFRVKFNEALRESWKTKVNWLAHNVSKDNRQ

[2] = test system: Pfeiffer; assay: Cytotoxicity against human Pfeiffer cells assessed as reduction in protein binding adjusted cell viability incubated for 4 days by [3H]-thymidine incorporation based liquid scintillation counter method; assay type: functional
[3] = Fractional unbound in human plasma; assay type: ADME, cell-free
[4] = Permeability across apical to basolateral side in human Caco2 cells at 50 uM incubated for 120 mins by LC/MS analysis; assay type: ADME, cell-based; details: Caco-2, read-out: permeability
[5] = Intrinsic clearance in human liver microsomes at 1 uM measured upto 30 mins by LC/MS analysis; assay type: ADME, Microsome; details: read-out: CLH (converted)
[6] = Solubility of the compound at pH 7.4; assay type: physicochemical; details: buffer
[7] = molecular target: T1, Phosphatidylinositol 4,5-bisphosphate 3-kinase catalytic subunit delta isoform; assay: Inhibition of PI3Kdelta (unknown origin) using D-myophosphatidylinositol 4,5-bisphosphate as substrate incubated for 120 mins by [gamma-33P]-ATP based scintillation counting method
[8] = molecular target: Phosphatidylinositol 4,5-bisphosphate 3-kinase catalytic subunit alpha isoform (Homo sapiens, UniProt P42336); assay: Inhibition of PI3Kalpha (unknown origin) using D-myophosphatidylinositol 4,5-bisphosphate as substrate incubated for 120 mins by [gamma-33P]-ATP based scintillation counting method
Chain of Phosphatidylinositol 4,5-bisphosphate 3-kinase catalytic subunit alpha isoform (P42336 whole entry, canonical isoform): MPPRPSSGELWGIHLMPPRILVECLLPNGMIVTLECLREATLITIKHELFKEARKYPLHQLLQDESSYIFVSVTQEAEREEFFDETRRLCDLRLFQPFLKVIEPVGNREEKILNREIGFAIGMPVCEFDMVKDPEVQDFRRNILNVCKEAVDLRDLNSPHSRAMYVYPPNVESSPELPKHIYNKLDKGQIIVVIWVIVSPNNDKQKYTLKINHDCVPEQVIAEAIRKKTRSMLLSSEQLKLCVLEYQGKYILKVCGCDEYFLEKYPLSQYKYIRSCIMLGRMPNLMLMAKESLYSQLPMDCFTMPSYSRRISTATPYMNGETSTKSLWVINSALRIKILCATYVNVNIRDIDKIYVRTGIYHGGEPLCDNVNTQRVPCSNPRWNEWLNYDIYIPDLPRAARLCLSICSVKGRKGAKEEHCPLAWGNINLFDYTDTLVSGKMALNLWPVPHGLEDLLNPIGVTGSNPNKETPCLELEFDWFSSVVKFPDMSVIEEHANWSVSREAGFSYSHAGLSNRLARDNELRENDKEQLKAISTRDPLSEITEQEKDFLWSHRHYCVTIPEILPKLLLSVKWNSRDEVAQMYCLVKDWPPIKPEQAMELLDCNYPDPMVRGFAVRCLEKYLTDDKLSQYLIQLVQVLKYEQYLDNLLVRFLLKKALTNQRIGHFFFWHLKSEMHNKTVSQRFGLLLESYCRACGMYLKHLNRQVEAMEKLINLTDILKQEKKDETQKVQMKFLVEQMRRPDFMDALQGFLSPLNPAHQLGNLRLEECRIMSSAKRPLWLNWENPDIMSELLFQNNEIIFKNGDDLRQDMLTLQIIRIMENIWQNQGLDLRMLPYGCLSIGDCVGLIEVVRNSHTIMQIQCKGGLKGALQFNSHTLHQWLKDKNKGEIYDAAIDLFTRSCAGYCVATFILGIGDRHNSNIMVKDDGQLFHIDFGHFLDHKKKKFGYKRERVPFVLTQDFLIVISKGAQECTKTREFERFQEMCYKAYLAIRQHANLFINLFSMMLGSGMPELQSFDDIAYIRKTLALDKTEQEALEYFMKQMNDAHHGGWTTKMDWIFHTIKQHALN

[9] = Clearance in rat at 4 mg/kg, iv measured for 24 hrs by LC-MS/MS analysis; assay type: ADME, organism-based; details: in vivo
[10] = Volume of distribution at steady state in Beagle dog at 2 mg/kg, iv measured for 24 hrs by LC-MS/MS analysis; assay type: ADME, organism-based, Canis lupus familiaris; details: in vivo, read-out: Vdss
[11] = Clearance in cynomolgus monkey at 2 mg/kg, iv measured for 24 hrs by LC-MS/MS analysis; assay type: ADME, organism-based, Macaca fascicularis; details: in vivo
[12] = molecular target: T2, Cytochrome P450 2B6 (Homo sapiens, UniProt P20813); assay: Inhibition of CYP2B6 in human liver microsomes at 0.1 to 25 uM using bupropion as substrate by LC/MS analysis; assay type: ADME
T2 sequence (P20813 whole entry): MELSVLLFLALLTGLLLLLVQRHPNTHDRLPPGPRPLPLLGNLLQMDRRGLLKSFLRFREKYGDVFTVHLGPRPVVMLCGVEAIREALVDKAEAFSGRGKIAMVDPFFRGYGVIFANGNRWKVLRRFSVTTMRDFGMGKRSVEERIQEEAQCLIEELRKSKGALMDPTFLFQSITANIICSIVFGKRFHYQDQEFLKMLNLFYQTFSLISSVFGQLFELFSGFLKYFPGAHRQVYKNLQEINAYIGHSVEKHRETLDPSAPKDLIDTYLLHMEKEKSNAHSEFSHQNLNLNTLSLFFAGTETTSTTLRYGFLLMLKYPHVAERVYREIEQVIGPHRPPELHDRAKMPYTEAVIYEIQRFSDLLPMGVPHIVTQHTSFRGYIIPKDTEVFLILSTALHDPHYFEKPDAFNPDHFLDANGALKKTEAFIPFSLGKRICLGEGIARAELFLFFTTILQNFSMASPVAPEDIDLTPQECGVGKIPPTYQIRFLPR

[13] = molecular target: T3, Cytochrome P450 1A2 (Homo sapiens, UniProt P05177); assay: Inhibition of CYP1A2 in human liver microsomes at 0.1 to 25 uM using 7-ethoxyresorufin as substrate by LC/MS analysis; assay type: ADME
T3 sequence (P05177 whole entry): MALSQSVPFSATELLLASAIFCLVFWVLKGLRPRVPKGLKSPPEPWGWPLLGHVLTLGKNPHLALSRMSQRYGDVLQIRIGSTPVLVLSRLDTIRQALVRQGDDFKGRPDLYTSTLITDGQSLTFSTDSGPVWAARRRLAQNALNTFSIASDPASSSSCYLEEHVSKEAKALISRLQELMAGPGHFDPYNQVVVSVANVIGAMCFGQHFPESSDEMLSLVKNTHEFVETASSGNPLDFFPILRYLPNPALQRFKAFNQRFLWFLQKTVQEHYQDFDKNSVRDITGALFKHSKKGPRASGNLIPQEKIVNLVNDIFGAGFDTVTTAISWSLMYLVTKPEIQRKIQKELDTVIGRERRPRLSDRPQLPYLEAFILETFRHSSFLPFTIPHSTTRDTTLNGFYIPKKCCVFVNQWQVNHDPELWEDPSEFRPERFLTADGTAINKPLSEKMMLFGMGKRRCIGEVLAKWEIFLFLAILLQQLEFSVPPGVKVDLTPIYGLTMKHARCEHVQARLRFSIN

[14] = molecular target: T4, Phosphatidylinositol 4,5-bisphosphate 3-kinase catalytic subunit delta isoform (Homo sapiens) (UniProt O00329)
T4 sequence (whole entry): T1 sequence (O00329 whole entry)
Description: Inhibition of PI3Kdelta (unknown origin) using D-myophosphatidylinositol 4,5-bisphosphate as substrate incubated for 120 mins by [gamma-33P]ATP based SPA assay

## CCOc1c([C@H](C)n2nc(C)c3c(N)ncnc32)cc(Cl)c(F)c1[C@@H]1CNC(=O)C1 [PARSACLISIB]
[1]
  pIC50: 8.96
[2]
  pIC50: 8.38
[3]
  fraction unbound: 0.058
[4]
  Papp A→B at 2 h, 50 µM: 1 ×10⁻⁶ cm/s
[5]
  CLint scaled at 1 µM: 11.7 mL/min/kg
[6]
  solubility: 210 µg/mL (≈ 485 µM)
[7]
  pIC50: 8.96
[8]
  pIC50: < 4.70
[9]
  CL: 26%
[10]
  Vd: 0.32 L/kg
[11]
  CL: 5%
[12]
  inhibition (INH): Not Active
[13]
  inhibition (INH): Not Active
[14]
  inhibition: inactive
